Reference: patent US20080075660A1, “Near infrared-fluorescence using phospholipid ether analog dyes in endoscopic applications” (Cellectar, LLC, priority 2006, published 2008)

Assays:
[1] = system: colon tumors; assay: microPET/microCT imaging of I-124-NM404 in colon tumor model in rats (PIRC rat); type: in vivo
Description: FIG. 1 provides a 2D microCT projection of an excised PIRC rat colon filled with 2% barium (A) and ^124I-NM404 microPET image in a PIRC Rat (B) and the fused microPET/microCT image (C). Fiducial marker (M), Tumor (arrow).
Multiple tumors have been detected protruding into the colon lumen.

[2] = system: malignant tumors; settings: radiolabeled versions (such as I-124), known from earlier studies; cited from earlier work

In the case of C[N+](C)(C)CCOP(=O)([O-])OCCCCCCCCCCCCCCCCCCc1ccc(I)cc1 [NM404, 18-(p-Iodophenyl)octadecyl phosphocholine], the “accumulation in excised colon on microPET image” value ([1]; PIRC rat colon with multiple tumors, microPET) is reported as “one area of accumulation only”, the “accumulation in colon tumors, fused microCT/microPET image” value ([1]; adenocarcinoma versus other colon tumors) is reported as “seen only in a tumor that later proved to be an adenocarcinoma” and the “accumulation in benign polyps” value ([1]; all other colon tumors, which turned out to be benign polyps) is reported as “did not show accumulation”. For the same molecule, the “accumulation in malignant versus benign tumors” value [2] was “accumulate in malignant tumors, but not in benign tumors such as polyps”.
